Drawing on ChEMBL document CHEMBL1135176, “Combinatorial synthesis and biological evaluation of isoxazole-based libraries as antithrombotic agents” (2002), this text covers Protection and Increase for 46 compounds.

In assay [1] the test system is Mus musculus. Kind of assay: In vivo antithrombotic activity in Swiss mice was determined when the compound was administered at 30 umol/kg orally 1 hour prior to challenge. Format: functional.
The test system of assay [2] is Mus musculus. The assay can be described thus: In vivo increase in the bleeding time was determined when administered at 30 umol/kg orally 1 hour prior to challenge. It is filed as functional.

Regarding `NCCCCC(C(N)=O)N(Cc1ccc([N+](=O)[O-])cc1)Cc1cc(-c2ccccc2)on1` (configuration not stated), in the assay on Mus musculus [1], the Protection amounted to 30%.
Compound `NC(=O)C(Cc1c[nH]cn1)N(Cc1ccccc1)Cc1cc(-c2ccccc2)on1` (configuration not stated) yielded an Increase with Mus musculus [2] of 81%. This compound also came in with a Protection in the assay on Mus musculus [1] of 50%.
In the assay on Mus musculus [2], `Cc1ccc(-c2cc(CN(Cc3ccccc3)C(Cc3ccc(O)cc3)C(N)=O)no2)cc1` (configuration not stated) returned an Increase of 20%. Further, the Protection in the assay on Mus musculus [1] is listed as 60%.
In the assay with Mus musculus [1], `NC(=O)C(Cc1ccc(O)cc1)N(Cc1ccc(Br)cc1)Cc1cc(-c2ccccc2)on1` (configuration not stated) displayed a Protection of 20%.
With `CC(C)=CCC(C(N)=O)N(Cc1ccccc1)Cc1cc(-c2ccccc2)on1` (configuration not stated), in the assay on Mus musculus [1], the Protection turned out to be 30%.
On to `Cc1ccc(-c2cc(CN(Cc3cccc([N+](=O)[O-])c3)C(Cc3c[nH]cn3)C(N)=O)no2)cc1` (configuration not stated), for which the Increase with Mus musculus [2] was 40%. Also, the Protection in the assay on Mus musculus [1] is 60%.
For the compound `NC(=O)C(Cc1ccccc1)N(Cc1ccccc1)Cc1cc(-c2ccccc2)on1` (configuration not stated), the Protection in the assay with Mus musculus [1] is given as 30%.
In the assay with Mus musculus [1], `N#Cc1ccc(CN(Cc2cc(-c3ccccc3Cl)on2)C(Cc2ccc(O)cc2)C(N)=O)cc1` (configuration not stated) returned a Protection of 40%.
Turning to `Cc1ccc(-c2cc(CN(Cc3ccccc3)C(CCCN=C(N)N)C(N)=O)no2)cc1` (configuration not stated), the Protection with Mus musculus [1] is 10%.
As to `Cc1ccc(-c2cc(CN(Cc3cccc(C)c3)C(Cc3ccccc3)C(N)=O)no2)cc1` (configuration not stated), the Increase in the assay on Mus musculus [2] worked out at 0%. For the same compound, the Protection with Mus musculus [1] was 50%.
Take `Cc1ccc(CN(Cc2cc(-c3ccccc3)on2)C(Cc2c[nH]cn2)C(N)=O)cc1` (configuration not stated): in the assay with Mus musculus [1], the Protection is recorded as 40%.
As to `NC(=O)CCC(C(N)=O)N(Cc1ccc(Br)cc1)Cc1cc(-c2ccccc2Cl)on1` (configuration not stated), the Protection in the assay on Mus musculus [1] was 20%.
Compound `NC(=O)C(Cc1ccccc1)N(Cc1ccccc1)Cc1cc(-c2ccccc2Cl)on1` (configuration not stated) had a Protection in the assay with Mus musculus [1] of 30%.
In turn, `N#Cc1ccc(CN(Cc2cc(-c3ccccc3)on2)C(CCC(N)=O)C(N)=O)cc1` (configuration not stated) showed an Increase in the assay with Mus musculus [2] of 62%. This compound also came in with a Protection with Mus musculus [1] of 70%.
In turn, `NC(=O)C(CO)N(Cc1ccccc1)Cc1cc(-c2ccccc2)on1` (configuration not stated) displayed an Increase in the assay with Mus musculus [2] of 58%. The same compound had a Protection in the assay on Mus musculus [1] of 60%.
Regarding `Cc1ccc(-c2cc(CN(CC(N)=O)Cc3ccccc3)no2)cc1`, the Protection with Mus musculus [1] amounted to 20%.
Still for that read-out and setting: for `NC(=O)C(Cc1ccccc1)N(Cc1ccc(Br)cc1)Cc1cc(-c2ccccc2)on1` (configuration not stated) the value was 20%; for `Cc1ccc(-c2cc(CN(Cc3ccc(Br)cc3)C(CCCN=C(N)N)C(N)=O)no2)cc1` (configuration not stated), 40%.
Compound `Cc1ccc(-c2cc(CN(Cc3ccc(C#N)cc3)C(CCCCN)C(N)=O)no2)cc1` (configuration not stated) had a Protection in the assay with Mus musculus [1] of 40%.
In the assay on Mus musculus [1], `Cc1ccc(-c2cc(CN(Cc3ccc(C#N)cc3)C(Cc3ccc(O)cc3)C(N)=O)no2)cc1` (configuration not stated) registered a Protection of 20%.
In the assay on Mus musculus [1], `NC(=O)C(Cc1ccccc1)N(Cc1ccc([N+](=O)[O-])cc1)Cc1cc(-c2ccccc2Cl)on1` (configuration not stated) returned a Protection of 20%.
`N#Cc1ccc(CN(Cc2cc(-c3ccccc3Cl)on2)C(Cc2ccccc2)C(N)=O)cc1` (configuration not stated) showed an Increase in the assay on Mus musculus [2] of 0%. The compound further gave a Protection in the assay with Mus musculus [1] of 50%.
`N=C(N)NCCCC(C(N)=O)N(Cc1ccc(Br)cc1)Cc1cc(-c2ccccc2)on1` (configuration not stated) yielded an Increase in the assay on Mus musculus [2] of 25%. In the assay on Mus musculus [1], this compound showed a Protection of 80%.
`Cc1ccc(-c2cc(CN(Cc3ccccc3)C(CCCCN)C(N)=O)no2)cc1` (configuration not stated) gave a Protection with Mus musculus [1] of 40%.
As for `N#Cc1ccc(CN(Cc2cc(-c3ccccc3Cl)on2)C(CO)C(N)=O)cc1` (configuration not stated), the Protection with Mus musculus [1] is 10%.
As to `CC(C)=CCC(C(N)=O)N(Cc1ccc(C#N)cc1)Cc1cc(-c2ccccc2)on1` (configuration not stated), the Protection in the assay on Mus musculus [1] came to 20%.
Compound `Cc1ccc(-c2cc(CN(Cc3ccccc3)C(CO)C(N)=O)no2)cc1` (configuration not stated) displayed an Increase in the assay on Mus musculus [2] of 79%. The compound further had a Protection in the assay with Mus musculus [1] of 60%.
For `NC(=O)C(Cc1ccc(O)cc1)N(Cc1ccc(Br)cc1)Cc1cc(-c2ccccc2Cl)on1` (configuration not stated), the Protection with Mus musculus [1] is on record as 60%.
Turning to `Cc1ccc(-c2cc(CN(Cc3cccc([N+](=O)[O-])c3)C(CCCCN)C(N)=O)no2)cc1` (configuration not stated), in the assay with Mus musculus [1], the Protection is on record as 20%.
`Cc1ccc(-c2cc(CN(Cc3cccc(Br)c3)C(CCCCN)C(N)=O)no2)cc1` (configuration not stated) came in with a Protection in the assay on Mus musculus [1] of 40%.
Compound `N=C(N)NCCCC(C(N)=O)N(Cc1ccccc1)Cc1cc(-c2ccccc2Cl)on1` (configuration not stated) came in with a Protection in the assay with Mus musculus [1] of 40%.
On to `N#Cc1ccc(CN(Cc2cc(-c3ccccc3)on2)C(CO)C(N)=O)cc1` (configuration not stated), for which the Protection in the assay on Mus musculus [1] worked out at 30%.
`NC(=O)C(CO)N(Cc1ccc(Br)cc1)Cc1cc(-c2ccccc2Cl)on1` (configuration not stated): the Increase with Mus musculus [2] turned out to be 50%. For the same compound, the Protection with Mus musculus [1] amounted to 70%.
On to `Cc1ccc(-c2cc(CN(Cc3ccc(C#N)cc3)C(CO)C(N)=O)no2)cc1` (configuration not stated), for which the Increase in the assay on Mus musculus [2] was determined as 41%. Further, the Protection in the assay on Mus musculus [1] amounted to 60%.
For `CC(C)=CCC(C(N)=O)N(Cc1ccc(C)cc1)Cc1cc(-c2ccccc2)on1` (configuration not stated), the Protection in the assay with Mus musculus [1] worked out at 20%.
Take `N#Cc1ccc(CN(Cc2cc(-c3ccccc3)on2)C(Cc2c[nH]cn2)C(N)=O)cc1` (configuration not stated): the Increase with Mus musculus [2] stood at 80%. The same compound registered a Protection in the assay with Mus musculus [1] of 50%.
`NC(=O)C(Cc1c[nH]cn1)N(Cc1ccc([N+](=O)[O-])cc1)Cc1cc(-c2ccccc2)on1` (configuration not stated) registered an Increase in the assay with Mus musculus [2] of 30%. This compound also had a Protection in the assay with Mus musculus [1] of 60%.
The compound `Cc1ccc(CN(Cc2cc(-c3ccccc3)on2)C(CCCCN)C(N)=O)cc1` (configuration not stated) yielded a Protection in the assay with Mus musculus [1] of 20%.
In the case of `N#Cc1ccc(CN(Cc2cc(-c3ccccc3)on2)C(CCCNC(=N)N)C(N)=O)cc1` (configuration not stated), the Increase in the assay on Mus musculus [2] is reported as 31%. Moreover, the Protection in the assay with Mus musculus [1] was determined as 50%.
For `N#Cc1ccc(CN(Cc2cc(-c3ccccc3Cl)on2)C(CCCNC(=N)N)C(N)=O)cc1` (configuration not stated) the same measures were 87.5% and 90%.
In turn, `NC(=O)C(Cc1c[nH]cn1)N(Cc1cccc(Br)c1)Cc1cc(-c2ccccc2)on1` (configuration not stated) returned a Protection in the assay on Mus musculus [1] of 40%.
Compound `Cc1ccc(-c2cc(CN(Cc3cccc(Br)c3)C(Cc3c[nH]cn3)C(N)=O)no2)cc1` (configuration not stated) gave a Protection in the assay on Mus musculus [1] of 10%.
In the case of `NC(=O)C(CO)N(Cc1ccc(Br)cc1)Cc1cc(-c2ccccc2)on1` (configuration not stated), the Protection in the assay with Mus musculus [1] is listed as 30%.
Take `Cc1ccc(-c2cc(CN(Cc3ccc(C#N)cc3)C(CCCN=C(N)N)C(N)=O)no2)cc1` (configuration not stated): the Protection in the assay on Mus musculus [1] is 40%.
On the same count and under the same terms, as for `CC(C)=CCC(C(N)=O)N(Cc1cccc(C)c1)Cc1cc(-c2ccc(C)cc2)on1` (configuration not stated), the figure is 60%.
As to `CC(=O)Oc1ccccc1C(=O)O` [ASPIRIN], the Increase in the assay with Mus musculus [2] is 110%. In the assay on Mus musculus [1], this compound displayed a Protection of 40%.
